Among the test systems are HCT-116 colon; SNB-19 CNS; EKVX NSCLC; UACC-62 melanoma; RXF 393 renal; A498 renal; SF-268 CNS; OVCAR-5 ovarian; SNB-75 CNS; NCI/ADR-RES ovarian.
What all share (assay): NCI anticancer screen, dose series, 48 h

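The compound was tested at five concentrations on cells cultured in 96-well plates, with a 48-hour exposure period. The concentration for 50% growth inhibition is given as GI50. The concentration for full growth arrest is given as TGI.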

`O=C(CCc1nc(=S)[nH][nH]1)Nc1ccccc1Cl`: the TGI in the test on HCT-116 colon, in the test with SNB-19 CNS, in the test with EKVX NSCLC, with UACC-62 melanoma, in the test with RXF 393 renal and in the test with A498 renal was > 100 µM each time. The TGI in the test with SF-268 CNS, in the test on OVCAR-5 ovarian and with SNB-75 CNS was > 100 µM each time.

Take `Clc1cc(Cl)c2ns[s+]c2c1Cl`: the TGI in the test with HCT-116 colon, in the test on SNB-19 CNS, with EKVX NSCLC, in the test with UACC-62 melanoma, in the test with RXF 393 renal and with A498 renal was > 100 µM throughout. Besides, the TGI in the test with SF-268 CNS, with OVCAR-5 ovarian and in the test on SNB-75 CNS was > 100 µM in each case.

For the compound `COC(=O)Nc1nc2ccc(C3(c4ccc(F)cc4)OCCO3)cc2[nH]1`, the GI50 was 0.28 µM in the test on NCI/ADR-RES ovarian; 0.409 µM in the test with HCT-116 colon; 0.483 µM with SNB-19 CNS; 619 nM with UACC-62 melanoma; 0.211 µM in the test with RXF 393 renal; 133 nM with A498 renal. For the same compound, the GI50 in the test with SF-268 CNS is 2.07 µM; in the test on OVCAR-5 ovarian, 0.614 µM; in the test with SNB-75 CNS, 0.262 µM. Besides, the TGI was > 35.4 µM in the test on NCI/ADR-RES ovarian; > 49.6 µM in the test on HCT-116 colon; > 100 µM in the test on SNB-19 CNS; > 100 µM with UACC-62 melanoma; 0.654 µM in the test on RXF 393 renal; 2.87 µM with A498 renal. The TGI is > 100 µM in the test with SF-268 CNS, > 100 µM in the test on OVCAR-5 ovarian and 98.4 µM in the test on SNB-75 CNS.

For the compound `CC(=O)C1Cn2c(nc3ccccc32)C[Se]1` (stereo not drawn), the TGI in the test with HCT-116 colon turned out to be 7.7 µM; in the test on SNB-19 CNS it was 16 µM; in the test on EKVX NSCLC, 28.7 µM; in the test with UACC-62 melanoma, 3.64 µM; with RXF 393 renal, 5.2 µM; with A498 renal, 32.7 µM. Besides, the TGI in the test on SF-268 CNS was found to be 11.5 µM; in the test on OVCAR-5 ovarian, 10.4 µM; in the test with SNB-75 CNS, 8.02 µM.

On to `CC12OC(C(=O)C13CC3)C1C(=O)c3ccc4c(ccc5ccccc54)c3C(=O)C12` (stereo not drawn), for which the GI50 in the test on NCI/ADR-RES ovarian was 41.2 µM; with HCT-116 colon, 43.7 µM; in the test with SNB-19 CNS it was 71.8 µM; in the test with EKVX NSCLC, 51.3 µM; in the test on RXF 393 renal, 22.5 µM; with SF-268 CNS, 26.5 µM. Moreover, the GI50 in the test with OVCAR-5 ovarian was 30.1 µM; with SNB-75 CNS it was 51.3 µM. For the same compound, the TGI in the test on NCI/ADR-RES ovarian is > 100 µM; in the test with HCT-116 colon, > 100 µM; in the test with SNB-19 CNS it was > 100 µM; in the test on EKVX NSCLC, > 100 µM; with RXF 393 renal it was 61.8 µM; in the test with SF-268 CNS, 86.1 µM. Moreover, the TGI in the test with OVCAR-5 ovarian and with SNB-75 CNS was > 100 µM in each case.

For the compound `COc1c2c(cc3c1OCO3)[C@]13C=C[C@H](OC)C[C@H]1N(C2)CC3O` (stereo partly drawn), the TGI with NCI/ADR-RES ovarian, in the test with HCT-116 colon, in the test with SNB-19 CNS, in the test on EKVX NSCLC, in the test with UACC-62 melanoma and in the test on RXF 393 renal was > 100 µM each time. Further, the TGI in the test on A498 renal, in the test on SF-268 CNS and in the test on OVCAR-5 ovarian was > 100 µM each time.

As to `COC(=O)C(CC(=O)Nc1ccc(C)cc1)C(=O)C(=O)Nc1c(C(C)C)cccc1C(C)C` (stereo not drawn), the TGI in the test on HCT-116 colon, in the test on SNB-19 CNS, in the test on EKVX NSCLC, with UACC-62 melanoma, in the test on RXF 393 renal and in the test with A498 renal was > 100 µM throughout. In addition, the TGI in the test with SF-268 CNS, in the test with OVCAR-5 ovarian and in the test with SNB-75 CNS was > 100 µM in each case.

For the compound `COc1cc2c(cc1OCCCCC(=O)Nc1cc3c4ccccc4ccc3c3ccccc13)N=C[C@@H]1CCCN1C2=O`, the GI50 was 32.2 µM in the test with NCI/ADR-RES ovarian; 25.1 µM in the test with HCT-116 colon; 11.3 µM in the test on SNB-19 CNS; 17.3 µM in the test on EKVX NSCLC; 658 nM in the test on UACC-62 melanoma; 2900 nM in the test with A498 renal. For the same compound, the GI50 is 2.67 µM with SF-268 CNS, 11.5 µM in the test with OVCAR-5 ovarian and 19 µM in the test on SNB-75 CNS. In addition, the TGI was > 85.7 µM in the test on NCI/ADR-RES ovarian; 88.8 µM with HCT-116 colon; > 61.7 µM with SNB-19 CNS; 64.2 µM with EKVX NSCLC; 8.24 µM in the test with UACC-62 melanoma; 9.38 µM with A498 renal. Also, the TGI in the test on SF-268 CNS was 15 µM; with OVCAR-5 ovarian it was 52.8 µM; in the test with SNB-75 CNS, > 52.9 µM.

Take `S=c1ssc(N2CCOCC2)c1Cl`: the GI50 with NCI/ADR-RES ovarian is 43.9 µM; with SNB-19 CNS, > 100 µM; in the test with EKVX NSCLC, 58 µM; in the test with UACC-62 melanoma, 26500 nM; in the test on RXF 393 renal, 36 µM; in the test on SF-268 CNS, 23.3 µM. Also, the GI50 in the test with OVCAR-5 ovarian is > 100 µM. Further, the TGI is > 100 µM in the test on NCI/ADR-RES ovarian; > 100 µM with SNB-19 CNS; > 100 µM in the test with EKVX NSCLC; > 100 µM with UACC-62 melanoma; > 100 µM with RXF 393 renal; 71 µM in the test on SF-268 CNS. Besides, the TGI in the test with OVCAR-5 ovarian is > 100 µM.

On to `OCC1OC(n2cnc3c2NC=NC[C@H]3O)C(Cl)C1O` (stereo partly drawn), for which the TGI in the test on NCI/ADR-RES ovarian, in the test on HCT-116 colon, with SNB-19 CNS, in the test on EKVX NSCLC, with UACC-62 melanoma and in the test on A498 renal was > 100 µM each time. The TGI with SF-268 CNS, in the test with OVCAR-5 ovarian and in the test on SNB-75 CNS was > 100 µM throughout.

With `c1ccc(C2N3CCCCC3[C@@H]3c4[nH]c5ccccc5c4CCN23)nc1` (stereo partly drawn), the TGI in the test with HCT-116 colon, in the test with SNB-19 CNS, with EKVX NSCLC, in the test with UACC-62 melanoma, in the test on RXF 393 renal and in the test with A498 renal was > 100 µM in each case. For the same compound, the TGI with SF-268 CNS, in the test on OVCAR-5 ovarian and in the test with SNB-75 CNS was > 100 µM each time.

For the compound `CN(C)CCC1(C2=CCCC2)CC/C(=C\c2ccc(Cl)cc2)C1=O` (stereo not drawn), the TGI in the test on HCT-116 colon turned out to be 22.3 µM; in the test with SNB-19 CNS, 24.1 µM; in the test on EKVX NSCLC it was 18.8 µM; in the test with UACC-62 melanoma it was 9.05 µM; in the test with RXF 393 renal, 10.9 µM; in the test on A498 renal it was 19.1 µM. The TGI in the test on SF-268 CNS is 26.1 µM; with OVCAR-5 ovarian it was 25.7 µM; with SNB-75 CNS, 20.4 µM.
